experiment: Hydrolysis rate / drug release rate of the compounds (release of JAK inhibitor, HPLC); type: physicochemical; details: % release of JAK inhibitor from sample in acetonitrile/water=7/3 (v/v), 37° C. constant temperature shaker, sampled days 1-4, HPLC
Procedure: Analysis Method for Hydrolysis Rate of Compounds of the Present Invention
1. Preparation of Standard Working Curve Solution
About 10 mg of JAK inhibitors (tofacitinib and baricitinib) reference substances were weighed into a 25 mL volumetric flask, acetonitrile/water=7/3 (v/v) was added to dissolve and dilute to the marked volume, serving as a stock solution. The stock solution was diluted with a suitable dilution factor to obtain linear solutions of each concentration: 0.0002 mg/mL, 0.0004 mg/mL, 0.004 mg/mL, 0.04 mg/mL, and 0.08 mg/mL.
About 10 mg of JAK inhibitors (Oclacitinib, Ruxolitinib, Delgocitinib, and Upadacitinib) reference substances were weighed into a 25 mL volumetric flask, acetonitrile/water=7/3 (v/v) was added to dissolve and dilute to the marked volume, serving as a stock solution. The stock solution was diluted with a suitable dilution factor to obtain linear solutions of each concentration: 0.0002 mg/mL, 0.0004 mg/mL, 0.004 mg/mL, 0.04 mg/mL, and 0.08 mg/mL.
2. Preparation of Sample Solution
About 5 mg of the sample (the compound prepared in the present invention) was weighed into a 20 mL volumetric flask, acetonitrile/water=7/3 (v/v) was added to dissolve and dilute to the marked volume, serving as a stock solution. An appropriate amount of HPLC was loaded as the 0-day sample. The test solution was sealed with a sealing film and placed in a 37° C. constant temperature shaker. The test samples were taken at the same time on days 1, 2, 3, and 4 respectively. the release amount of JAK inhibitor in the sample was calculated according to the sample weight and JAK inhibitor standard curve.
3. Calculation Formula % Release of JAK Inhibitor r=100%×((AJAK Inhibitor−b)/a)/((W/20×M2/M1) wherein • AJAK inhibitor is the peak area of JAK inhibitor in the sample chromatogram • b is the intercept of the standard curve M1 is the molecular weight of the sample a is the slope of the standard curve
W is the sample weight (mg) M2 is the molecular weight of the JAK inhibitor
4. Chromatographic Conditions

SMILES | Release Rate (%/day)
CCC(C(=O)n1ccc2c(N3CC[C@]4(C3)[C@@H](C)CN4C(=O)CC#N)ncnc21)c1ccc(N2Cc3ccccc3C2=O)cc1 (stereo partly drawn) [Ex. 143, 3-((3S, 4R)-3-methyl-6-(7-(2-(4-(1-oxoisoindolin-2-yl)phenyl)butanoyl)-7H-pyrrolo [2,3-d]pyrimidin-4-yl)-1,6-diazaspiro [3.4]octan-1-yl)-3-oxopropanenitrile] | 4.29
CC(C)Cc1ccc(C(C)C(=O)n2ccc3c(N(C)[C@H]4CN(C(=O)CC#N)CC[C@H]4C)ncnc32)cc1 (stereo partly drawn) [Ex. 1, 3-((3R,4R)-3-((7-(2-(4-isobutylphenyl)propanoyl)-7H-pyrrolo [2,3-d]pyrimidin-4-yl) (methyl)amino)-4-methylpiperidin-1-yl)-3-oxopropanenitrile] | 8.26
CC(C(=O)n1ccc2c(N(C)[C@H]3CN(C(=O)CC#N)CC[C@H]3C)ncnc21)c1ccc(-c2ccccc2)c(F)c1 (stereo partly drawn) [Ex. 8, 3-((3R, 4R)-3-((7-(2-(2-fluoro-[1, 1′-biphenyl]-4-yl)propanoyl)-7H-pyrrolo[2,3-d]pyrimidin-4-yl)(methyl)amino)-4-methylpiperidin-1-yl)-3-oxopropanenitrile] | 14.77
CCS(=O)(=O)N1CC(CC#N)(n2cc(-c3ncnc4c3ccn4COC(=O)C(C)c3cccc(C(=O)c4ccccc4)c3)cn2)C1 (centres unmarked) [Ex. 62, 4-(1-(3-(cyanomethyl)-1-(ethylsulfonyl)azetidin-3-yl)-1H-pyrazol-4-yl)-7H-pyrrolo [2,3-d] pyrimidin-7-yl) methyl 2-(3-benzoylphenyl) propanoate] | 0.01
CC(C)Cc1ccc([C@H](C)C(=O)n2ccc3c(N4CC[C@]5(C4)[C@@H](C)CN5C(=O)CC#N)ncnc32)cc1 [Ex. 140, 3-((3S, 4R)-6-(7-((S)-2-(4-isobutylphenyl)propanoyl)-7H-pyrrolo [2,3-d]pyrimidin-4-yl)-3-methyl-1,6-diazaspiro [3.4]oct-1-yl)-3-oxopropanenitrile] | 8.10
CC(C(=O)n1ccc2c(-c3cnn([C@H](CC#N)C4CCCC4)c3)ncnc21)c1cccc(Oc2ccccc2)c1 (stereo partly drawn) [Ex. 54, (3R)-3-cyclopentyl-3-(4-(7-(2-(3-phenoxyphenyl)propanoyl)-7H-pyrrolo [2,3-d]pyrimidin-4-yl)-1H-pyrazol-1-yl) propanenitrile] | 4.93
Cc1cnc(NC(=O)C2=C(OCn3ccc4c(N(C)[C@H]5CN(C(=O)CC#N)CC[C@H]5C)ncnc43)c3ccccc3S(=O)(=O)N2C)s1 [Ex. 142, 4-((4-(((3R, 4R)-1-(2-cyanoacetyl)-4-methylpiperidin-3-yl) (methyl)amino)-7H-pyrrolo [2,3-d]pyrimidin-7-yl)methoxy)-2-methyl-N-(5-methylthiazol-2-yl)-2H-benzo [e] [1, 2] thiazine-3-carboxamide 1,1-dioxide] | 0.05
COc1ccc2c(c1)c(CC(=O)OCn1ccc3c(-c4cnn([C@H](CC#N)C5CCCC5)c4)ncnc31)c(C)n2C(=O)c1ccc(Cl)cc1 [Ex. 104, (R)-2-(4-(1-(2-cyano-1-cyclopentylethyl)-1H-pyrazol-4-yl)-7H-pyrrolo [2,3-d]pyrimidin-7-yl) methyl 2-(1-(4-chlorobenzoyl)-5-methoxy-2-methyl-1H-indol-3-yl) acetate] | 0.45
CC[C@@H]1CN(C(=O)NCC(F)(F)F)C[C@@H]1c1cnc2cnc3c(ccn3C(=O)Cc3c(C)n(C(=O)c4ccc(Cl)cc4)c4ccc(OC)cc34)n12 [Ex. 133, (3R, 4S)-3-(3-(2-(1-(4-Chlorobenzoyl)-5-methoxy-2-methyl-1H-indol-3-yl)acetyl)-3H-imidazo [1,2-a]pyrrolo [2,3-e]pyrazin-8-yl)-4-ethyl-N-(2,2,2-trifluoroethyl) pyrrolidine-1-carboxamide] | 10.13
Cc1cccc(Nc2ccccc2C(=O)n2ccc3c(-c4cnn([C@H](CC#N)C5CCCC5)c4)ncnc32)c1C [Ex. 82, (R)-3-cyclopentyl-3-(4-(7-(2-((2,3-dimethylphenyl)amino)benzoyl)-7H-pyrrolo [2,3-d]pyrimidin-4-yl)-1H-pyrazol-1-yl) propanenitrile] | 0.43
CC[C@@H]1CN(C(=O)NCC(F)(F)F)C[C@@H]1c1cnc2cnc3c(ccn3C(=O)[C@@H](C)c3ccc(CC(C)C)cc3)n12 [Ex. 123, (3S, 4R)-3-ethyl-4-(3-((S)-2-(4-isobutylphenyl)propanoyl)-3H-imidazo [1,2-a]pyrrolo [2,3-e]pyrazin-8-yl)-N-(2,2,2-trifluoroethyl) pyrrolidine-1-carboxamide] | 3.02
CC[C@@H]1CN(C(=O)NCC(F)(F)F)C[C@@H]1c1cnc2cnc3c(ccn3C(=O)C(C)c3ccc(CC(C)C)cc3)n12 (stereo partly drawn) [Ex. 124, (3S, 4R)-3-ethyl-4-(3-(2-(4-isobutylphenyl)propanoyl)-3H-imidazo [1,2-a]pyrrolo [2,3-e]pyrazin-8-yl)-N-(2,2,2-trifluoroethyl) pyrrolidine-1-carboxamide] | 2.75
CCS(=O)(=O)N1CC(CC#N)(n2cc(-c3ncnc4c3ccn4C(=O)c3ccccc3Nc3cccc(C)c3C)cn2)C1 [Ex. 47, 2-(3-(4-(7-(2-((2,3-Dimethylphenyl)amino)benzoyl)-7H-pyrrolo [2,3-d]pyrimidin-4-yl)-1H-pyrazol-1-yl)-1-(ethylsulfonyl)azetidin-3-yl) acetonitrile] | 0.36
CCS(=O)(=O)N1CC(CC#N)(n2cc(-c3ncnc4c3ccn4COC(=O)C(C)c3ccc(-c4ccccc4)c(F)c3)cn2)C1 (centres unmarked) [Ex. 69, Methyl (4-(1-(3-(cyanomethyl)-1-(ethylsulfonyl)azetidin-3-yl)-1H-pyrazol-4-yl)-7H-pyrrolo [2,3-d]pyrimidin-7-yl) 2-(2-fluoro-[1, 1′-biphenyl]-4-yl) propanoate] | 0.03
CCc1cccc2c3c([nH]c12)C(CC)(CC(=O)n1ccc2c(N(C)[C@H]4CN(C(=O)CC#N)CC[C@H]4C)ncnc21)OCC3 (stereo partly drawn) [Ex. 14, 3-((3R,4R)-3-((7-(2-(1,8-diethyl-1,3,4,9-tetrahydropyrano[3,4-b]indol-1-yl)acetyl)-7H-pyrrolo[2,3-d]pyrimidin-4-yl) (methyl)amino)-4-methylpiperidin-1-yl)-3-oxopropanenitrile] | 0.98
CCC(C(=O)OCn1ccc2c(N(C)[C@H]3CN(C(=O)CC#N)CC[C@H]3C)ncnc21)c1ccc(N2Cc3ccccc3C2=O)cc1 (stereo partly drawn) [Ex. 65, (4-(((3R, 4R)-1-(2-cyanoacetyl)-4-methylpiperidin-3-yl) (methyl)amino)-7H-pyrrolo [2,3-d]pyrimidin-7-yl) methyl 2-(4-(1-oxoisoindol-2-yl)) phenyl) butanoate] | 0.01
CNS(=O)(=O)C[C@H]1CC[C@H](N(C)c2ncnc3c2ccn3C(=O)Cc2c(C)n(C(=O)c3ccc(Cl)cc3)c3ccc(OC)cc23)CC1 [Ex. 42, 1-((Trans)-4-((7-(2-(1-(4-chlorobenzoyl)-5-methoxy-2-methyl-1H-indol-3-yl)acetyl)-7H-pyrrolo [2,3-d]pyrimidin-4-yl) (methyl)amino)cyclohexyl)-N-methylmethanesulfonamide] | 22.18

From patent US12290519B2, “Anti-inflammatory coupling compound drug, and preparation method therefor and use thereof” (COVAL BIOPHARMA (SHANGHAI) CO., LTD., priority 2021, dated 2025)
